From patent US6903095B2, “Phthalimido derivatives and a process for their preparation” (Hoffmann-La Roche Inc., priority 2002, dated 2005)
Counter-ions that a name gives are not always drawn.

Assays:
[1] = target: T1, human MAO-B (Homo sapiens, UniProt P27338); assay: MAO-B enzymatic activity, spectrophotometric assay (Amplex Red, tyramine substrate) on membranes of transfected EBNA cells; format: biochemical; conditions: 30 min preincubation at 37° C., pH 7.4, tyramine substrate
T1 construct: expressed in transfected cells; host or cells: EBNA cells (transient transfection; cell membranes used)
T1 sequence (P27338 1-520): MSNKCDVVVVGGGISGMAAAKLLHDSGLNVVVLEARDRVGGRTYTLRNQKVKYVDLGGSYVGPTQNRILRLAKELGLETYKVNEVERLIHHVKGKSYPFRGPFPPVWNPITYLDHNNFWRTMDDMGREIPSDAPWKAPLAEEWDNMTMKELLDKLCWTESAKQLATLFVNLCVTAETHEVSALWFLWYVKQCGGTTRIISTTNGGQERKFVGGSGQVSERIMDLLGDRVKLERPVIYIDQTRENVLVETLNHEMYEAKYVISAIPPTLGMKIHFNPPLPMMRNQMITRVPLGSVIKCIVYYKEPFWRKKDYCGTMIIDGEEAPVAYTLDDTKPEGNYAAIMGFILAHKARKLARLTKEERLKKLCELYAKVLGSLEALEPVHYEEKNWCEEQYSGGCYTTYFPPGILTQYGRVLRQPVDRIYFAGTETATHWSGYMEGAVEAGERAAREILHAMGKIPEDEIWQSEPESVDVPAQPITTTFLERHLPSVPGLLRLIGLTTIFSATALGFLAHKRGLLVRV
Protocol: (§1) The cDNA's encoding human MAO-A and MAO-B were transiently transfected into EBNA cells using the procedure described by E.-J. Schlaeger and K. Christensen (Transient Gene Expression in Mammalian Cells Grown in Serum-free Suspension Culture; Cytotechnology, 15: 1-13, 1998). After transfection, cells were homogenized by means of a Polytron homogenizer in 20 mM Tris HCl buffer, pH 8.0, containing 0.5 mM EGTA and 0.5 mM phenylmethanesulfonyl fluoride. Cell membranes were obtained by centrifugation at 45,000×g and, after two rinsing step with 20 mM Tris HCl buffer, pH 8.0, containing 0.5 mM EGTA, membranes were eventually re-suspended in the above buffer and aliquots stored at −80° C. until use.
(§2) MAO-A and MAO-B enzymatic activity was assayed in 96-well-plates using a spectrophotometric assay adapted from the method described by M. Zhou and N. Panchuk-Voloshina (A One-Step Fluorometric Method for the Continuous Measurement of Monoamine Oxidase Activity, Analytical Biochemistry, 253: 169-174, 1997). Briefly, membrane aliquots were incubated in 0.1 M potassium phosphate buffer, pH 7.4, for 30 min at 37° C. with or without various concentrations of the compounds. After this period, the enzymatic reaction was started by the addition of the MAO substrate tyramine together with 1 U/ml horse-radish peroxidase (Roche Biochemicals) and 80 μM N-acetyl-3,7,-dihydroxyphenoxazine (Amplex Red, Molecular Probes). The samples were further incubated for 30 min at 37° C. in a final volume of 200 μl and absorbance was then determined at a wavelength of 570 nm using a SpectraMax plate reader (Molecular Devices). Background (non-specific) absorbance was determined in the presence of 10 μM clorgyline for MAO-A or 10 μM L-deprenyl for MAO-B.
(§3) IC50 values were determined from inhibition curves obtained using nine inhibitor concentrations in duplicate, by fitting data to a four parameter logistic equation using a computer program.

[2] = target: T2, human MAO-A (Homo sapiens, UniProt P21397); assay: MAO-A enzymatic activity, spectrophotometric assay (Amplex Red, tyramine substrate) on membranes of transfected EBNA cells; format: biochemical; conditions: 30 min preincubation at 37° C., pH 7.4, tyramine substrate
T2 construct: expressed in transfected cells; host or cells: EBNA cells (transient transfection; cell membranes used)
T2 sequence (P21397 1-527): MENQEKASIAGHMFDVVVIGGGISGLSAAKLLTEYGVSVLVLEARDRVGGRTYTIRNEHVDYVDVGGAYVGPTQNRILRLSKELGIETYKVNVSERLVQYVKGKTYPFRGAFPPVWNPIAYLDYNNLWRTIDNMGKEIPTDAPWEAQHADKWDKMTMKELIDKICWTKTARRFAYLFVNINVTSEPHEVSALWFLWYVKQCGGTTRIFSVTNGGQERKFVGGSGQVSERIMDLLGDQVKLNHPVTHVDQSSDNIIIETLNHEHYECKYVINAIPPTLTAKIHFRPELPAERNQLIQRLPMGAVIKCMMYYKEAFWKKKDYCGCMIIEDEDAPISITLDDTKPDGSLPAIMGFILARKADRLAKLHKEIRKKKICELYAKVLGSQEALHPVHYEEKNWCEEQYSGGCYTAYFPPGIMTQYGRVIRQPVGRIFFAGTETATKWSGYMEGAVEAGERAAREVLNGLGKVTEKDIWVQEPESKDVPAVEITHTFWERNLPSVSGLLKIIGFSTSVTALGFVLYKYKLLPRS
Protocol: as §1, §2, §3

SMILES	IC50 [1] [nM]	IC50 [2] [µM]
C[C@@H](C(N)=O)N1C(=O)c2ccc(OCc3cccc(F)c3)cc2C1=O [Example 44, (S)-2-[5-(3-Fluoro-benzyloxy)-1,3-dioxo-1,3-dihydro-isoindol-2-yl]-propionamide]	7	5.76
CCSCCN1C(=O)c2ccc(OCc3ccc(F)cc3)cc2C1=O [Example 19, 2-(2-Ethylsulfanyl-ethyl)-5-(4-fluoro-benzyloxy)-isoindole-1,3-dione]	11	> 10
COC[C@H](C)N1C(=O)c2ccc(OCc3cccc(OC)c3)cc2C1=O [Example 29, (S)-5-(3-Methoxy-benzyloxy)-2-(2-methoxy-1-methyl-ethyl)-isoindole-1,3-dione]	69	> 10
COC(CN1C(=O)c2ccc(OCc3ccc(F)cc3)cc2C1=O)C(F)(F)F (stereo not drawn) [Example 43]	45	> 10
CC[S+]([O-])CCN1C(=O)c2ccc(OCc3ccc(F)cc3)cc2C1=O (stereo not drawn) [Example 38, 2-(2-Ethanesulfinyl-ethyl)-5-(4-fluoro-benzyloxy)-isoindole-1,3-dione]	115	> 10
COC[C@H](C)N1C(=O)c2ccc(OCc3ccc(F)c(F)c3)cc2C1=O [Example 31, (S)-5-(3,4-Difluoro-benzyloxy)-2-(2-methoxy-1-methyl-ethyl)-isoindole-1,3-dione]	32	3.5
NCCN1C(=O)c2ccc(OCc3ccc(F)cc3)cc2C1=O [Example 9, 2-(2-Amino-ethyl)-5-(4-fluoro-benzyloxy)-isoindole-1,3-dione 1:1 hydrochloride]	32	> 10
COC[C@H](C)N1C(=O)c2ccc(OCc3ccc(OC(F)(F)F)cc3)cc2C1=O [Example 32, (S)-2-(2-Methoxy-1-methyl-ethyl)-5-(4-trifluoromethoxy-benzyloxy)-isoindole-1,3-dione]	47	> 10

Now from value to compound:

IC50 [1] [nM]	IC50 [2] [µM]	SMILES
17	> 10	NC(=O)[C@H](CO)N1C(=O)c2ccc(OCc3ccc(F)cc3)cc2C1=O [Example 14, (S)-2-[5-(4-Fluoro-benzyloxy)-1,3-dioxo-1,3-dihydro-isoindol-2-yl]-3-hydroxy-propionamide]
4	0.369	O=C1c2ccc(OCc3ccc(F)cc3)cc2C(=O)N1CCO [Example 12, 5-(4-Fluoro-benzyloxy)-2-(2-hydroxy-ethyl)-isoindole-1,3-dione]
34	> 10	COC[C@H](C)N1C(=O)c2ccc(OCc3ccc(Br)cc3)cc2C1=O [Example 28, (S)-5-(4-Bromo-benzyloxy)-2-(2-methoxy-1-methyl-ethyl)-isoindole-1,3-dione]
129	6.2	COC[C@H](C)N1C(=O)c2ccc(OCc3ccc(C#N)cc3)cc2C1=O [Example 30, (S)-4-[2-(2-Methoxy-1-methyl-ethyl)-1,3-dioxo-2,3-dihydro-1H-isoindol-5-yloxymethyl]-bezonitrile]
8	0.776	C[C@@H](C(N)=O)N1C(=O)c2ccc(OCc3ccc(F)cc3)cc2C1=O [Example 2, (S)-2-[5-(4-Fluoro-benzyloxy)-1,3-dioxo-1,3-dihydro-isoindol-2-yl]-propionamide]
20	> 10	NC(=O)[C@H](CO)N1C(=O)c2ccc(OCc3cccc(F)c3)cc2C1=O [Example 52, (S)-2-[5-(3-Fluoro-benzyloxy)-1,3-dioxo-1,3-dihydro-isoindol-2-yl]-3-hydroxy-propionamide]
34	> 10	N#CCN1C(=O)c2ccc(OCc3ccc(F)cc3)cc2C1=O [Example 7]
97	> 10	NC(=O)CC(O)CN1C(=O)c2ccc(OCc3ccc(F)cc3)cc2C1=O (stereo not drawn) [Example 22, 4-[5-(4-Fluoro-benzyloxy)-1,3-dioxo-1,3-dihydro-isoindol-2-yl]-3-hydroxy-butyramide]
81	> 10	O=C1c2ccc(OCc3ccc(F)cc3)cc2C(=O)N1Cc1cccs1 [Example 34, 5-(4-Fluoro-benzyloxy)-2-thiophen-2-ylmethyl-isoindole-1,3-dione]
39	> 10	NCCN1C(=O)c2ccc(OCc3cccc(F)c3)cc2C1=O [Example 50, 2-(2-Amino-ethyl)-5-(3-fluoro-benzyloxy)-isoindole-1,3-dione 1:1 hydrochloride]
